Reference: US20210032257A1, “(E)-1-(4-(DIMETHYLAMINO)BUT-2-ENOYL)PYRROLIDIN-3-YL 4-((3-ISOPROPYL-5-METHYLPYRAZOLO[1,5-A]PYRIMIDIN-7-YL)AMINO)PIPERIDINE-1-CARBOXYLATE FOR INHIBITING CDK7” (Eli Lilly and Company, priority 2017, published 2021)

Experiments:
Assay in all cases: Biomarker study proliferation (CellTiter-Glo)
Assay type in all cases: cell-based
CACO2 = system: CACO2
Outline: (§1)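 Profiling across cell lines annotated for ARID1A, KMT2C, KMT2D or RB1 alterations used CellTiter-Glo viability after 7 days' treatment. Responses were classed insensitive, cytostatic or cytotoxic using IC50 1 μM and 70% inhibition cut-offs.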

CORL311 = system: CORL311
Outline: as §1

HT = system: HT
Outline: as §1

HUH1 = system: HUH1
Outline: as §1

KYSE270 = system: KYSE270
Outline: as §1

KYSE30 = system: KYSE30
Outline: as §1

MCF7 = system: MCF7
Outline: as §1

MDAMB157 = system: MDAMB157
Outline: as §1

MDST8 = system: MDST8
Outline: as §1

NCIH1048 = system: NCIH1048
Outline: as §1

NCIH2347 = system: NCIH2347
Outline: as §1

OVCAR5 = system: OVCAR5
Outline: as §1

SAOS2 = system: SAOS2
Outline: as §1

SNU1 = system: SNU1
Outline: as §1

SNU739 = system: SNU739
Outline: as §1

SNU869 = system: SNU869
Outline: as §1

TOV112D = system: TOV112D
Outline: as §1

TOV21G = system: TOV21G
Outline: as §1

UMUC3 = system: UMUC3
Outline: as §1

[1] = 168 h, read-out: Anti-proliferation effect IC50
[2] = Homo sapiens, 168 h, read-out: Anti-proliferation effect IC50

## Cc1cc(NC2CCN(C(=O)O[C@H]3CCN(C(=O)/C=C/CN(C)C)C3)CC2)n2ncc(C(C)C)c2n1 [Example 1, [(3S)-1-[(E)-4-(dimethylamino)but-2-enoyl]pyrrolidin-3-yl] 4-[(3-isopropyl-5-methyl-pyrazolo[1,5-a]pyrimidin-7-yl)amino]piperidine-1-carboxylate]
CACO2; CACO2, INTESTINE, 7 days
  Anti-proliferation effect % Inh.: 60%
  Anti-proliferation effect Outcome: Cytostatic (cytostatic (IC50<1 μM and % inhibition <70%))
CACO2; Homo sapiens, Caco-2, 168 h, read-out: Anti-proliferation effect IC50
  IC50: 189 nM
CORL311; [1]
  IC50: 95 nM
CORL311; CORL311, LUNG, 7 days
  Anti-proliferation effect % Inh.: 75%
  Anti-proliferation effect Outcome: Cytotoxic (cytotoxic (IC50<1 μM and % inhibition ≥70%))
HT; BLOOD, 7 days
  Anti-proliferation effect % Inh.: 64%
  Anti-proliferation effect Outcome: Cytostatic (cytostatic (IC50<1 μM and % inhibition <70%))
HT; [2]
  IC50: 131 nM
HUH1; HUH1, LIVER, 7 days
  Anti-proliferation effect % Inh.: 72%
  Anti-proliferation effect Outcome: Cytotoxic (cytotoxic (IC50<1 μM and % inhibition ≥70%))
HUH1; Homo sapiens, HuH-1, 168 h, read-out: Anti-proliferation effect IC50
  IC50: 128 nM
KYSE270; Homo sapiens, KYSE-270, 168 h, read-out: Anti-proliferation effect IC50
  IC50: > 10000 nM
KYSE270; KYSE270, OESOPHAGUS, 7 days
  Anti-proliferation effect % Inh.: −180%
  Anti-proliferation effect Outcome: Insensitive (insensitive (IC50≥1 μM))
KYSE30; Homo sapiens, KYSE-30, 168 h, read-out: Anti-proliferation effect IC50
  IC50: 76 nM
KYSE30; KYSE30, OESOPHAGUS, 7 days
  Anti-proliferation effect % Inh.: 76%
  Anti-proliferation effect Outcome: Cytotoxic (cytotoxic (IC50<1 μM and % inhibition ≥70%))
MCF7; Homo sapiens, MCF7, 168 h, read-out: Anti-proliferation effect IC50
  IC50: 155 nM
MCF7; MCF7, BREAST, 7 days
  Anti-proliferation effect % Inh.: 58%
  Anti-proliferation effect Outcome: Cytostatic (cytostatic (IC50<1 μM and % inhibition <70%))
MDAMB157; Homo sapiens, MDA-MB-157, 168 h, read-out: Anti-proliferation effect IC50
  IC50: 866 nM
MDAMB157; MDAMB157, BREAST, 7 days
  Anti-proliferation effect % Inh.: 39%
  Anti-proliferation effect Outcome: Cytostatic (cytostatic (IC50<1 μM and % inhibition <70%))
MDST8; MDST8, 168 h, read-out: Anti-proliferation effect IC50
  IC50: 49 nM
MDST8; MDST8, INTESTINE, 7 days
  Anti-proliferation effect % Inh.: 88%
  Anti-proliferation effect Outcome: Cytotoxic (cytotoxic (IC50<1 μM and % inhibition ≥70%))
NCIH1048; Homo sapiens, NCI-H1048, 168 h, read-out: Anti-proliferation effect IC50
  IC50: 4 nM
NCIH1048; NCIH1048, LUNG, 7 days
  Anti-proliferation effect % Inh.: 95%
  Anti-proliferation effect Outcome: Cytotoxic (cytotoxic (IC50<1 μM and % inhibition ≥70%))
NCIH2347; Homo sapiens, NCI-H2347, 168 h, read-out: Anti-proliferation effect IC50
  IC50: 661 nM
NCIH2347; NCIH2347, LUNG, 7 days
  Anti-proliferation effect % Inh.: 45%
  Anti-proliferation effect Outcome: Cytostatic (cytostatic (IC50<1 μM and % inhibition <70%))
OVCAR5; Homo sapiens, OVCAR-5, 168 h, read-out: Anti-proliferation effect IC50
  IC50: 86 nM
OVCAR5; OVCAR5, OVARY, 7 days
  Anti-proliferation effect % Inh.: 74%
  Anti-proliferation effect Outcome: Cytotoxic (cytotoxic (IC50<1 μM and % inhibition ≥70%))
SAOS2; Homo sapiens, SAOS-2, 168 h, read-out: Anti-proliferation effect IC50
  IC50: 28 nM
SAOS2; SAOS2, BONE, 7 days
  Anti-proliferation effect % Inh.: 66%
  Anti-proliferation effect Outcome: Cytostatic (cytostatic (IC50<1 μM and % inhibition <70%))
SNU1; Homo sapiens, SNU1, 168 h, read-out: Anti-proliferation effect IC50
  IC50: 105 nM
SNU1; SNU1, STOMACH, 7 days
  Anti-proliferation effect % Inh.: 68%
  Anti-proliferation effect Outcome: Cytostatic (cytostatic (IC50<1 μM and % inhibition <70%))
SNU739; SNU739, LIVER, 7 days
  Anti-proliferation effect % Inh.: 47%
  Anti-proliferation effect Outcome: Insensitive (insensitive (IC50≥1 μM))
SNU739; SNU-739, 168 h, read-out: Anti-proliferation effect IC50
  IC50: > 10000 nM
SNU869; [1]
  IC50: 52 nM
SNU869; SNU869, BILIARY, 7 days
  Anti-proliferation effect % Inh.: 60%
  Anti-proliferation effect Outcome: Cytostatic (cytostatic (IC50<1 μM and % inhibition <70%))
TOV112D; [2]
  IC50: 25 nM
TOV112D; OVARY, 7 days
  Anti-proliferation effect % Inh.: 81%
  Anti-proliferation effect Outcome: Cytotoxic (cytotoxic (IC50<1 μM and % inhibition ≥70%))
TOV21G; [2]
  IC50: 61 nM
TOV21G; OVARY, 7 days
  Anti-proliferation effect % Inh.: 73%
  Anti-proliferation effect Outcome: Cytotoxic (cytotoxic (IC50<1 μM and % inhibition ≥70%))
UMUC3; Homo sapiens, UMUC3, 168 h, read-out: Anti-proliferation effect IC50
  IC50: 161 nM
UMUC3; UMUC3, URINARY, 7 days
  Anti-proliferation effect % Inh.: 70%
  Anti-proliferation effect Outcome: Cytotoxic (cytotoxic (IC50<1 μM and % inhibition ≥70%))
